In article PMC12598805, “Crystal Structure–Activity Relationship of Some MeO Phenylacrylonitriles: Dual Antimicrobial–Cytotoxic Effects and in Silico Perspectives” (ChemistryOpen, 2025):
pIC50: −log10 of the molar value. Values after ≈ are worked out from the molar mass of the structure shown. Read-outs that look alike come from different tables or passages of the source.

What was measured:
[1] = tested on: mouse fibroblast cells (L929, CCL‐1); experiment: Cytotoxicity on healthy cells, CCK8 cell viability; format: cell-based
Excerpt: (§1) We investigated the cytotoxic effects of acrylonitrile derivatives 2(a–c) on human lung carcinoma (A549, CCL‐185) cells purchased from American Culture Collection and human breast carcinoma (MCF‐7) cells purchased from Republic of Turkey Ministry of Agriculture and Forestry Şap Institute, (HUKUK, 00092502), In addition, mouse fibroblast cells (L929, CCL‐1) purchased from American Culture Collection were used to observe the effects of the compounds on healthy cells. In 25 T Flask, A549 cells were grown in dulbecco's modified eagle's medium, MCF‐7, and L929 cells were grown in eagle's minimum essential medium (EMEM), 10% fetal bovine serum and 1% Penicillin‐Streptomycin at 37 °C in a 5% CO2 and 100% humidified incubator. Cell proliferation was checked every day. Cells were taken into the experiment when the cell density reached 70% to 80%. (See Supporting Information for experimental preparation of biological studies).
(§2) The compounds 2a, 2b, and 2c were dissolved in 99.8% Dimethyl sulfoxide (DMSO) respectively, as
(§3) 10 mM main stock. To prepare the doses of acrylonitrile compounds used in the experiment to be
(§4) applied to the cells, five different concentrations of 31.25; 62.5; 125; 250 and 500 μM were prepared
(§5) by diluting the main stock solutions (10 mM) with the medium selected according to the cells. 5-
(§6) Fluorouracil (5-FU) was selected as a positive control in the study. After the 5-FU main stock solution
(§7) was dissolved with DMSO to be 10 mM, the concentrations to be used were diluted with the selected
(§8) media and made ready for the experimental plan. The concentrations used for 5-FU were prepared in
(§9) the same doses used for acrylonitrile derivatives. For the negative control group, groups containing
(§10) only media and no substance were used. Prepared acrylonitrile compounds and 5-FU concentrations
(§11) were added to the wells in three replicates for each dose, and their effects on cell viability at 24 and 48
(§12) Trypan blue solution (Gibco, 1525061) was used to distinguish between living and dead cells in the
(§13) study. Trypan blue passes uncontrollably through the membrane of dead cells that have lost their cell
(§14) membrane integrity and stains the cell blue. Living cells, on the other hand, are not stained because
(§15) Live cell counts were performed using trypan blue using a
(§16) cell counter (Logos Luna II).
(§17) In order to detach the cells adhering to the flasks from the bottom, 500 μL of 0.25% Trypsin-EDTA
(§18) (Gibco, 15400054) solution was added and treated for five minutes.
(§19) detach from the bottom under an inverted microscope (Zeiss Primovert, Germany), medium containing
(§20) 10% FBS was added. After centrifugation at 300 g for 5 minutes and discarding the medium, 1 mL of
(§21) medium was added and the cells were seeded into 96-well culture dishes as 1x10^4 cells in 100 μL per
(§22) Cell Counting Kit 8 (CCK8; Medchem, 146436) was used to determine cell viability. After adding 20 μL
(§23) of CCK8 solution to each well in the dark, 96-well culture dishes were wrapped with aluminum foil and
(§24) kept in a CO2 incubator at 37 °C for 2 hr. Then, it was automatically read with a microplate reader
(§25) (Chromate) at 450 and 630 nm wavelengths. The following formula was used to determine cell
(§26) % Viability = (Sample Well−Blank) (Negative Control−Blank)×100 (1)
(§27) The half-maximal inhibitory concentration (IC50) was calculated as 50% cell death causing dose
(§28) compared to the control group. All data are given as the mean percent fraction of control ± SEM.
(§29) Statistical analysis was done by one-way analysis of variance (ANOVA), followed by Tukey’s multiple
(§30) comparison tests. IBM SPSS Statistics 22 was used to utilize statistical analysis. […]

[2] = Cytotoxicity on healthy cells, CCK8 cell viability; format: cell-based, mouse; conditions: mouse, L929 mouse fibroblast cells, read-out: Cytotoxic activity IC50
Excerpt: as §1, §2, §3, §4, §5, §6, §7, §8, §9, §10, §11, §12, §13, §14, §15, §16, §17, §18, §19, §20, §21, §22, §23, §24, §25, §26, §27, §28, §29, §30

[3] = tested on: human breast carcinoma (MCF‐7) cells; experiment: Cytotoxicity, CCK8 cell viability; format: cell-based; conditions: for pIC50: Homo sapiens, MCF7, read-out: Cytotoxic activity IC50
Excerpt: as §1, §2, §3, §4, §5, §6, §7, §8, §9, §10, §11, §12, §13, §14, §15, §16, §17, §18, §19, §20, §21, §22, §23, §24, §25, §26, §27, §28, §29, §30

[4] = tested on: human lung carcinoma (A549, CCL‐185) cells; experiment: Cytotoxicity, CCK8 cell viability; format: cell-based; conditions: for pIC50: Homo sapiens, read-out: Cytotoxic activity IC50
Excerpt: as §1, §2, §3, §4, §5, §6, §7, §8, §9, §10, §11, §12, §13, §14, §15, §16, §17, §18, §19, §20, §21, §22, §23, §24, §25, §26, §27, §28, §29, §30

[5] = tested on: Candida albicans (ATCC-10231); experiment: Agar diffusion, zone of inhibition; format: cell-based; conditions: C.albicans, antibiotics at 5 mg mL^−1
Excerpt: (§31) The antibacterial and antifungal activities were reported utilizing the method described by the Clinical & Laboratory Standards Institute.^[ [31], [32] ^] Agar diffusion method was used to determine the antimicrobial activity of the synthesized substances. The media used were mueller hinton agar (MHA) for bacteria and sabouraud‐dextrose agar (SDA) for fungi (Merck), as recommended by the manufacturer.
(§32) The synthesized compounds were initially investigated for their antimicrobial activity to elucidate the potential therapeutic utility against various pathogenic microbes using the agar plate diffusion method. The compounds were tested at a concentration of 50 mg mL^−1, and the antibiotics (ampicillin, kanamycin, and amphotericin B) were used at 5 mg mL^−1. […] K.pneumoniae and B.cereus were resistant to ampicillin, while they were susceptible to kanamycin with inhibition values of 30 and 26 mm, respectively. No antimicrobial activity of the compounds was observed against E.faecalis, S.typhimurium, K.pneumoniae, and for the fungus compared to Amphotericin B (20 mm). […]
(§33) ATCC: American Type Culture Collection; NRRL: Northern Regional Research Laboratory The compounds 2(a-c) obtained could only be completely solubilised with dimethyl sulphoxide (DMSO) and the highest possible stock solutions of 50 mg.mL-1 were prepared. To these wells 50 μl of the previously prepared substances were transferred using sterile micropipette tips. For comparison, Ampicillin and kanamycin antibiotics for bacteria and Amphotericin B antibiotics for fungus were used as positive controls and DMSO was used as negative control. The prepared petri plates were kept at +4°C for about 1 hour and then the bacterial cultures were incubated at 37°C for 18-24 hours and mould cultures at 27-30°C for 48-72 hours. The zones formed were measured millimetrically with callipers. The experiments were performed with three repetitions. […]

[6] = tested on: Candida albicans (ATCC-10231); experiment: MBC/MFC by sub-culture from wells without growth; format: cell-based; conditions: ATCC10231, C.albicans
Method: (§34) ATCC: American Type Culture Collection; NRRL: Northern Regional Research Laboratory The compounds 2(a-c) obtained could only be completely solubilised with dimethyl sulphoxide (DMSO) and the highest possible stock solutions of 50 mg.mL-1 were prepared. […]
(§35) 3.1. Determination of Minimum Inhibition Concentration (MIC)
(§36) The minimum inhibition concentration (MIC) values of the compounds 2(a-c) against the test bacteria used in the study were determined according to the broth microdilution method.[1-2] MHB or SDB was used as test medium and bacterial and yeast suspensions were prepared at 0.5 Mc Farland concentration for each test bacteria. Double layer serial dilutions were prepared in "U" type 96-well microtiter plates. Medium+bacteria suspensions containing only medium in the first row, medium+bacteria in the second row and the final concentrations of the synthesised substances in the other rows between 25 mg.mL-1 and […] were added to the wells with a final volume of 200
(§37) μL. Ampicillin, Kanamycin and Amphotericin B standard antibiotics were used as positive controls.
(§38) Bacteria were incubated at 37±0.1 °C and C. albicans at 30±0.1 °C for 24-48 hours and the lowest concentration without growth was determined as MIC. Tests were performed in two parallel runs and mean values were given as a result. […]

[7] = tested on: Bacillus cereus (ATCC-10876); experiment: MBC by sub-culture from wells without growth; format: cell-based; conditions: B.cereus
Method: (§39) Bacillus cereus (ATCC-10876) […]
as §34, §35, §36, §37
Bacteria were incubated at 37±0.1 °C and C. albicans at 30±0.1 °C for 24-48 hours and the lowest concentration without growth was determined as MIC. Tests were performed in two parallel runs and mean values were given as a result. In order to estimate “the minimum bactericidal/fungicidal concentrations (MBC/MFC) of the synthesised acrylonitrile derivatives “needed to indicate […] killing of the original inoculum,” 10 μl was taken from the wells with no observed growth and further sub-cultured onto their agar media (MHA and SDA for bacterial and fungal strains, respectively).[3] […]

[8] = tested on: Klebsiella pneumoniae (ATCC-70063); experiment: Agar diffusion, zone of inhibition; format: cell-based; conditions: K.pneumoniae, antibiotics at 5 mg mL^−1
Excerpt: as §31, §32
Klebsiella pneumoniae (ATCC-70063)
as §33

[9] = tested on: Bacillus cereus (ATCC-10876); experiment: Broth microdilution MIC; format: cell-based; conditions: B.cereus
Method: as §39, §34, §35, §36, §37, §38

[10] = tested on: Bacillus cereus (ATCC-10876); experiment: Agar diffusion, zone of inhibition; format: cell-based; conditions: B.cereus, antibiotics at 5 mg mL^−1
Excerpt: as §31
The synthesized compounds were initially investigated for their antimicrobial activity to elucidate the potential therapeutic utility against various pathogenic microbes using the agar plate diffusion method. The compounds were tested at a concentration of 50 mg mL^−1, and the antibiotics (ampicillin, kanamycin, and amphotericin B) were used at 5 mg mL^−1. […] K.pneumoniae and B.cereus were resistant to ampicillin, while they were susceptible to kanamycin with inhibition values of 30 and 26 mm, respectively. No antimicrobial activity of the compounds was observed against E.faecalis, S.typhimurium, K.pneumoniae, and for the fungus compared to Amphotericin B (20 mm).
as §39, §33

SMILES: O=c1[nH]cc(F)c(=O)[nH]1 [5‐FU, 5‐Fluorouracil, reference compound]
- decrease in cell viability ([1]; L929, 24 h, 31.25 μM): 45%
- decrease in cell viability ([1]; L929, 24 h, 62.5 μM): 45%
- decrease in cell viability ([1]; L929, 24 h, 125 μM): 51%
- decrease in cell viability ([1]; L929, 24 h, 250 μM): 62%
- decrease in cell viability ([1]; L929, 24 h, 500 μM): 93%
- decrease in cell viability ([1]; L929, 48 h, 31.25 μM): 50%
- decrease in cell viability ([1]; L929, 48 h, 62.5 μM): 64%
- decrease in cell viability ([1]; L929, 48 h, 125 μM): 68%
- decrease in cell viability ([1]; L929, 48 h, 250 μM): 80%
- decrease in cell viability ([1]; L929, 48 h, 500 μM): 93%
- IC50 at 24 h ([2]; L929, 24 h): 109 µM
- IC50 at 48 h ([2]; L929, 48 h): 33 µM
- pIC50 ([3]; MCF‐7, 24 h): 3.60
- pIC50 ([3]; MCF‐7, 48 h): 3.99
- decrease in cell viability ([3]; MCF‐7, 24 h, 31.25 μM): 23%
- decrease in cell viability ([3]; MCF‐7, 24 h, 62.5 μM): 23%
- decrease in cell viability ([3]; MCF‐7, 24 h, 125 μM): 34%
- decrease in cell viability ([3]; MCF‐7, 24 h, 250 μM): 50%
- decrease in cell viability ([3]; MCF‐7, 24 h, 500 μM): 76%
- decrease in cell viability ([3]; MCF‐7, 48 h, 31.25 μM): 46%
- decrease in cell viability ([3]; MCF‐7, 48 h, 62.5 μM): 47%
- decrease in cell viability ([3]; MCF‐7, 48 h, 125 μM): 52%
- decrease in cell viability ([3]; MCF‐7, 48 h, 250 μM): 74%
- decrease in cell viability ([3]; MCF‐7, 48 h, 500 μM): 95%
- suppressive effect on cell proliferation / viability ([4]; A549, 24 h, 31.25 to 500 μM): did not show any suppressive effect
- decrease in cell viability ([4]; A549, 48 h, 250 μM): 17%
- decrease in cell viability ([4]; A549, 48 h, 500 μM): 77%
- pIC50 ([4]; A549, 24 h): < 3.30
- pIC50 ([4]; A549, 48 h): 3.41

SMILES: C[C@@H]1[C@H](O)[C@@H](C)/C=C/C=C/C=C/C=C/C=C/C=C/C=C/[C@H](O[C@@H]2O[C@H](C)[C@@H](O)[C@H](N)[C@@H]2O)C[C@@H]2O[C@](O)(C[C@@H](O)C[C@@H](O)[C@H](O)CC[C@@H](O)C[C@@H](O)CC(=O)O[C@H]1C)C[C@H](O)[C@H]2C(=O)O [Amphotericin B, reference compound]
- zone of inhibition [5]: 20 ± 0.71 mm
- zone of inhibition at 5 mg/mL ([5]; Candida albicans, ATCC10231): 20 mm
- MBC [6]: 250 µg/mL (≈ 271 µM)

SMILES: NC[C@H]1O[C@H](O[C@H]2[C@H](O)[C@@H](O[C@H]3O[C@H](CO)[C@@H](O)[C@H](N)[C@H]3O)[C@H](N)C[C@@H]2N)[C@H](O)[C@@H](O)[C@@H]1O [Kanamycin, reference compound]
- MBC [7]: 62.5 µg/mL (≈ 129 µM)
- zone of inhibition [8]: 30 ± 0 mm
- zone of inhibition ([8]; listed as kanamycin): 30 mm
- MIC [9]: 31.25 µg/mL (≈ 64.5 µM)
- zone of inhibition [10]: 26 ± 1.41 mm
- zone of inhibition ([10]; listed as kanamycin): 26 mm
